Entries after “also recorded” stand apart in the source; their conditions may differ.
Legend:
[1] = Quantum yield in CH2Cl2 (DCM) solution; type: physicochemical
Source text: (§1) These new compounds (3Si/3Ge through 8Si %8Ge) show a strong absorption band in CH2Cl2 solution in the region of 371-394 nm (log ε values ranged from 4.25-5.23) and emission maxima in the region of 401-452 nm. The quantum efficiencies determined from solution samples containing the silafluorenes 3Si-8Si were high (0.80-0.87) and the related germafluorenes 3Ge-8Ge had slightly lower values between 0.64-0.83. […] The solid-state quantum yields have been measured for several of the sila- and germafluorenes. The solid-state quantum yields for 7 compounds have been measured and the values range from 0.14 to 0.91 with the highest values for compounds 5Ge […] and 6Ge (0.81). Additional quantum yield measurements both in solution and in the solid-state are made for other compounds shown in Scheme 2 (FIG. 2).
The silafluorenes show intense fluorescence both in solution and in the solid-state (FIG. 11). The quantum yield range in CH2Cl2 solution is 0.80-0.89 for several silafluorenes studied to date.
(§2) Quantum yields were collected for these compounds in aqueous solution and in the presence of the aforementioned surfactants and the data are shown in Table 2. Quantum yields in the presence of surfactants are markedly higher than in their absence. In the presence of detergents, the quantum yield is recovered to near perfect quantum efficiency.

[2] = Solubility in DMSO and in aqueous solution; type: physicochemical; details: for solubility in aqueous solution: aqueous solutions / aqueous buffer, diluted from DMSO
Source text: Studies have been conducted herein for a series of silafluorenes with a broad range of alkynyl substituent groups: 3Si, 4Si, 7Si, […], 9Si, and 11Si, and 13Si. […] This provides a tunability to the optical behavior that is useful for bioimaging.
This provides a tunability to the optical behavior that is useful for imaging (FIG. 40).

ExpiCHO cells = experiment: Fluorescence staining of CHO cells; type: cell-based; details: 10 μM, 15 minutes
Experimental: (§3) The surfactants are 0.6 mM TX-100, 25 mM CHAPS, 20 mM CTAB, 30 mM SDS, and 10 mM SDBS. ExpiCHO cells were stained with 10 μM 3Si for 15 minutes. Experimental details include Gains: 762; Digital gains: 2.3; Pinhole: 1 AU; and 2% Laser intensity.

[3] = Fluorescence change upon addition of detergent Triton X-100; details: for spectral change when Triton X-100 is added: neutral detergent Triton X-100
Experimental: (§4) Non-denaturing detergents, common proxies for membranes and lipids, were added to each compound. […] Moreover, the degree of enhancement is very sensitive to the aggregation state of the detergent: enhancement is more dramatic at concentrations at which the detergents are known to form micellar aggregates (critical micelle concentration).
Detergents enhance fluorescence. Triton X-100 (TX100) was added to each metallafluorene at concentrations below and above TX-100's CMC (0.3 mM), and fluorescence was measured (FIGS. 31A, 31B, and 32).
as §4, with “(i.e. the critical” for “(critical”

[4] = Quantum yield in aqueous solution (Tris) and in the presence of surfactants; type: physicochemical; details: for φTX (quantum yield): 0.6 mM TX-100; for φSBDS (quantum yield): 10 mM SDBS; for φCTAB (quantum yield): 20 mM CTAB; for φCHAPS (quantum yield): 25 mM CHAPS; for φSDS (quantum yield): 30 mM SDS; for φTris (quantum yield): aqueous solution, Tris, no surfactant
Experimental: as §2, §3

[5] = Solid-state quantum yield; type: physicochemical
Source text: as §1

[6] = tested on: yeast cells (S. cerevisiae); experiment: Fluorescence confocal microscopy of yeast cells; type: cell-based; details: permeabilized with DMSO, 405 nm laser, 100×
Experimental: S. cerevisiae were stained with 2,7-bis(4-ethynylphenanthrene)-3,6-dimethoxy-9,9-diphenylsilafluorene, referred to as Si phenanthrene, for 1 hour, then imaged on a confocal microscope (FIGS. 35 and 36).
S. cerevisiae were stained with 2,7-bis(4-ethynylbenzaldehyde)-3,6-dimethoxy-9,9-diphenylsilafluorene, referred to as Si benzaldehyde, for 1 hour, then imaged on a confocal microscope (FIG. 37). Again, DMSO was used to permeabilize cells.

[7] = tested on: calf thymus (mixed sequence) DNA; experiment: Spectroscopic DNA binding study; details: aqueous buffer, calf thymus DNA added
[8] = Absorption and emission in CH2Cl2 solution and in the solid-state; type: physicochemical
Source text: as §1

[9] = Solvatochromism: emission in different solvents; type: physicochemical
Source text: Solvents, like water and dichloromethane, greatly affect the fluorescence energy (i.e., color) of some molecules—this is called solvatochromism. Excited electrons may mobilize across the molecule more easily in these cases. For example, 2,7-bis(4-ethynylbenzaldehyde)-3,6-dimethoxysilafluorene emits green in ethanol, but blue in nonpolar solvents (FIGS. 23-24).

| Structure (SMILES) | φDCM (quantum yield) [1] | solubility in aqueous solution [2] | spectral change when Triton X-100 is added [3] | φTX (quantum yield) [4] | φSBDS (quantum yield) [4] | φCTAB (quantum yield) [4] | φCHAPS (quantum yield) [4] | φSDS (quantum yield) [4] | φTris (quantum yield) [4] | solubility in DMSO [2] | further results |
| --- | --- | --- | --- | --- | --- | --- | --- | --- | --- | --- | --- |
| COc1cc2c(cc1C#Cc1cccc(F)c1)[Si](c1ccccc1)(c1ccccc1)c1cc(C#Cc3cccc(F)c3)c(OC)cc1-2 [3Si] | 0.80 | low micromolar concentrations | dramatic blue shifts and emission enhancements | 1.0 ± 0.04 | 0.49 ± 0.09 | 0.98 | 0.90 ± 0.02 | 0.55 ± 0.03 | 0.34 ± 0.005 |  | fluorescence inside cells (ExpiCHO cells): observed inside of CHO cells; emission enhancement upon the addition of detergent/membrane mimics (comparison) [3]: comparable |
| COc1cc2c(cc1C#Cc1ccc(-c3ccccc3)cc1)[Si](c1ccccc1)(c1ccccc1)c1cc(C#Cc3ccc(-c4ccccc4)cc3)c(OC)cc1-2 [7Si] | 0.82 | low micromolar concentrations |  | 0.94 ± 0.05 | 0.73 | 0.93 | 0.32 | 0.88 ± 0.05 | 0.11 ± 0.01 | low millimolar concentrations; also recorded: low micromolar concentrations; also recorded: least soluble |  |
| COc1cc2[c](cc1C#Cc1ccc(C(C)(C)C)cc1)[Ge]([c]1ccccc1)([c]1ccccc1)[c]1cc(C#Cc3ccc(C(C)(C)C)cc3)c(OC)cc1-2 [5Ge] |  |  |  |  |  |  |  |  |  |  | solid-state quantum yield [5]: 0.92 |
| COc1cc2[c](cc1C#Cc1ccc(Oc3ccccc3)cc1)[Ge]([c]1ccccc1)([c]1ccccc1)[c]1cc(C#Cc3ccc(Oc4ccccc4)cc3)c(OC)cc1-2 [6Ge] |  |  |  |  |  |  |  |  |  |  | solid-state quantum yield [5]: 0.81 |
| COc1cc2c(cc1C#Cc1ccc(-n3c4ccccc4c4ccccc43)cc1)[Si](c1ccccc1)(c1ccccc1)c1cc(C#Cc3ccc(-n4c5ccccc5c5ccccc54)cc3)c(OC)cc1-2 [11Si] |  | low micromolar concentrations |  |  |  |  |  |  |  | low millimolar concentrations; also recorded: low micromolar concentrations |  |
| COc1cc2c(cc1C#Cc1cccc3ccc4ccccc4c13)[Si](c1ccccc1)(c1ccccc1)c1cc(C#Cc3cccc4ccc5ccccc5c34)c(OC)cc1-2 [9Si, 2,7-bis(4-ethynylphenanthrene)-3,6-dimethoxy-9,9-diphenylsilafluorene] |  | low micromolar concentrations | dramatic blue shifts and emission enhancements |  |  |  |  |  |  | low millimolar concentrations; also recorded: low micromolar concentrations | solubility in DMSO ([2]; listed as 9.1): least soluble; solubility in aqueous solution ([2]; listed as 2,7-bis-alkynyl(phenanthrene)silafluorene): low micromolar concentration; staining pattern in cells [6]: either localizing onto an intracellular structure or self-aggregating within the cell; change of fluorescence emission upon addition of DNA [7]: decrease in fluorescence emission; emission enhancement upon the addition of detergent/membrane mimics (comparison) [3]: greatest emission enhancement |
| COc1cc2c(cc1C#Cc1cccc(F)c1)[Si](c1ccccc1)(c1ccccc1)c1cc(C#Cc3cccc(F)c3)c(OC)cc1-2 [meta-fluoro-silafluorene] |  |  |  |  |  |  |  |  |  |  | emission (in words) ([8]; methylene chloride solution and solid state): strong emission |
| COc1cc2c(cc1C#Cc1ccc(C)cc1)[Si](c1ccccc1)(c1ccccc1)c1cc(C#Cc3ccc(C)cc3)c(OC)cc1-2 [4Si] | 0.89 | low micromolar concentrations | dramatic blue shifts and emission enhancements | 0.97 ± 0.04 | 0.56 | 0.93 | 0.86 | 0.55 | 0.24 ± 0.01 | low millimolar concentrations; also recorded: low micromolar concentrations |  |
| COc1ccc2cc(C#Cc3c[c]4c(cc3OC)-c3cc(OC)c(C#Cc5ccc6cc(OC)ccc6c5)c[c]3[Ge]4([c]3ccccc3)[c]3ccccc3)ccc2c1 [8Ge] | 0.75 | low micromolar concentrations |  | 0.85 ± 0.06 | 0.47 | 0.99 | 0.93 | 0.30 | 0.094 ± 0.01 | low millimolar concentrations; also recorded: low micromolar concentrations |  |
| COc1cc2c(cc1C#Cc1ccc(C=O)cc1)[Si](c1ccccc1)(c1ccccc1)c1cc(C#Cc3ccc(C=O)cc3)c(OC)cc1-2 [13Si, 2,7-bis(4-ethynylbenzaldehyde)-3,6-dimethoxy-9,9-diphenylsilafluorene] |  | low micromolar concentrations | dramatic blue shifts and emission enhancements |  |  |  |  |  |  | low millimolar concentrations; also recorded: low micromolar concentrations | staining pattern in cells [6]: staining diffuse throughout the cell; emission λmax depending on the solvent ([9]; ethanol, dichloromethane, hexanes): 440-550 nm; emission colour ([9]; in ethanol): green; emission colour ([9]; in nonpolar solvents): blue; emission enhancement upon the addition of detergent/membrane mimics (comparison) [3]: comparable |
| FC(F)(F)c1ccc(C#Cc2cc[c]3c(c2)-c2cc(C#Cc4ccc(C(F)(F)F)cc4)cc[c]2[Ge]3([c]2ccccc2)[c]2ccccc2)cc1 [16Ge] |  |  |  |  |  |  |  |  |  |  | shift of absorbance and emission compared to related 2,7-disubstituted derivatives ([8]; 3,6-disubstituted versus 2,7-disubstituted): significant blue-shift; absorption maximum ([8]; CH2Cl2 solution): 288 nm; emission maximum ([8]; CH2Cl2 solution): 352 nm; emission from the solid-state ([8]; solid-state): 393 nm |
